# According to US20080026996A1, “Selective Vpac2 Receptor Reptide Agonists” (ELI LILLY AND COMPANY, priority 2004, published 2008):
# Several values for one entry are separate records, joined by “and”; a condition that tells them apart may be missing. Equal entries are not always repeated. Where no end group is shown, it is not given here. [ ]: non-standard residue; d: D form. The star is where a group is joined. hArg = N=C(N)NCCCC[C@H](N)C(=O)O; Hexanoyl = CCCCCC(=O)*
# Molecular target: T1, human VPAC2 (Homo sapiens, UniProt P41587)
# T1 construct: expressed in transfected cells
# T1 sequence (P41587 24-438): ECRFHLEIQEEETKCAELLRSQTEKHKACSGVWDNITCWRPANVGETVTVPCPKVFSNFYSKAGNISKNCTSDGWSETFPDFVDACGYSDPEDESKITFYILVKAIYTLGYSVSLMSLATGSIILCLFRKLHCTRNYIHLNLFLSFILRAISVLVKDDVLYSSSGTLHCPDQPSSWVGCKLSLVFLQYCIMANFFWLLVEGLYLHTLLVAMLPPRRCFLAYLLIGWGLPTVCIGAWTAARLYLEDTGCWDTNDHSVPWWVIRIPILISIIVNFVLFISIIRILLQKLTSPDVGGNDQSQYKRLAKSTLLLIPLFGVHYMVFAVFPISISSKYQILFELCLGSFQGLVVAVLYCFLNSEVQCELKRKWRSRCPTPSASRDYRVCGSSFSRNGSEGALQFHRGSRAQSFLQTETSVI
# Experiment: Filter binding assay, membranes of stable VPAC2 cell line, 125I-labeled VIP tracer (Table 2)
# Conditions: read-out: Human VPAC2 Receptor Binding
# Procedure, shortened: (§1)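 Scintillation counting of filter-retained radioligand gave the read-out. Compounds competed with the labelled tracer (about 40000 cpm) for 2.5 μg membranes during 1 hour of shaking in HEPES pH 7.4 buffer containing 0.5% BSA.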
row,Substance,IC50 [nM]
1,Ac-HSDAVFTDNYTRLRKQVAAKKYLQSIKNKRYGGPSSGAPPPS [Agonist P33],2.31
2,H-HSDAVFTDNYTRAKAKVAAKKYLQSIKNKRYGGPSSGAPPPS [Agonist P94],71.5
3,H-HSDAVFTDNYTRLRKQVAARKYLQSIKNKRYGGPSSGAPPPS [Agonist P20],2.5
4,HSDAVFTDNYTRAAAKVAAKKYLQSIKNKRYGGPSSGAPPPS [Agonist P88],93.9
5,HSDAVFTDNYTRLRKQVAAKKYLQSIKNGRPSSGAPPPS [Agonist P92],0.86
6,HSDAVFTDNYTRLRKQVAAKKYLQSIKNKRYGGPSSGAPPPS [Agonist P6],2.58
7,HSDAVFTDNYTRLRKQVAAKKYLQSIKNRRYGGPSSGAPPPS [Agonist P25],1.65
8,HSDAVFTDNYTRLRKQVAAKKYLQSIKN[hArg]RYGGPSSGAPPPS [Agonist P24],1.97
9,HSDAVFTDNYTRLRKQVAASKYLQSIKNKRYGGPSSGAPPPS [Agonist P21],4.94

# Molecular target: T2, DPP-IV (Sus scrofa, UniProt P22411)
# T2 construct: purchased Sigma
# Experiment: DPP-IV HPLC assay: in vitro incubation with purified dipeptidyl-peptidase IV
# Type: in vitro ADME, Porcine
# Conditions: Time = 0 hours at 37° C.
# Procedure: Part 1: Formulation of Selective VPAC2 Receptor Peptide Agonists: […]
# Approximately 2 mg of lyophilized peptide is weighed and dissolved in approximately 1.6 mL de-ionized water. […] After incubation at room temperature for 30 minutes, 1/10th of the original volume 10×PBS is added. The pH is adjusted to between pH 7.2 and 7.6. The peptide solution is filtered through a 0.22 μm Millex-GV syringe filter (Millipore, Bedford Mass., USA). The peptide concentration is determined through absorption at 280 nm. The peptide concentration is then adjusted to 100 μM. The peptides are frozen at −20° C. for further use.
# Part 2: In Vitro Incubation of Selective VPAC2 Receptor Peptide Agonists with Purified Dipeptidyl-Peptidase IV (DPP-IV):
# The stability of selective VPAC2 receptor peptide agonists against proteolysis by DPP-IV is determined using 100 μL of a 100 μM peptide solution in 1×PBS. A 10 μL solution is removed and quenched with 40 μL of 0.1% trifluoroacetic acid (TFA)/20% acetonitrile (ACN). This solution (20 μL) is analyzed by reversed-phase HPLC. The reversed-phase analysis consists of a Zorbax 300SB-C8 column (3.5 micron, 4.6×50 mm, Alltech Associates, Inc., Deerfield Ill., USA) running a 15-40% B gradient over 15 minutes at 60° C. where A-buffer is 0.1% (v/v) TFA in water and B-buffer is 0.085% (v/v) TFA in ACN. The peak area is integrated. This peak area serves as an internal control as 100% intact peptide.
# A 10 μL aliquot of a 1.12 mU/μL solution of DPP-IV (Sigma, St. Louis, La., USA) is added to 90 μL of a 100 μM solution of peptide, resulting in a substrate concentration of 90 μM peptide. The reaction mixture is then stored at 37° C. At various time-points, 10 μL of solution is removed, quenched with 40 μL 0.1% TFA/20% ACN, and analyzed by reversed-phase HPLC as described above. The remaining full length peptide concentration (nM) at each timepoint, except time=0, is calculated using following formula: [formula]
# For the time=0 timepoint, the concentration (nM) is calculated using the following formula: [formula]
# T2 sequence (P22411 whole entry): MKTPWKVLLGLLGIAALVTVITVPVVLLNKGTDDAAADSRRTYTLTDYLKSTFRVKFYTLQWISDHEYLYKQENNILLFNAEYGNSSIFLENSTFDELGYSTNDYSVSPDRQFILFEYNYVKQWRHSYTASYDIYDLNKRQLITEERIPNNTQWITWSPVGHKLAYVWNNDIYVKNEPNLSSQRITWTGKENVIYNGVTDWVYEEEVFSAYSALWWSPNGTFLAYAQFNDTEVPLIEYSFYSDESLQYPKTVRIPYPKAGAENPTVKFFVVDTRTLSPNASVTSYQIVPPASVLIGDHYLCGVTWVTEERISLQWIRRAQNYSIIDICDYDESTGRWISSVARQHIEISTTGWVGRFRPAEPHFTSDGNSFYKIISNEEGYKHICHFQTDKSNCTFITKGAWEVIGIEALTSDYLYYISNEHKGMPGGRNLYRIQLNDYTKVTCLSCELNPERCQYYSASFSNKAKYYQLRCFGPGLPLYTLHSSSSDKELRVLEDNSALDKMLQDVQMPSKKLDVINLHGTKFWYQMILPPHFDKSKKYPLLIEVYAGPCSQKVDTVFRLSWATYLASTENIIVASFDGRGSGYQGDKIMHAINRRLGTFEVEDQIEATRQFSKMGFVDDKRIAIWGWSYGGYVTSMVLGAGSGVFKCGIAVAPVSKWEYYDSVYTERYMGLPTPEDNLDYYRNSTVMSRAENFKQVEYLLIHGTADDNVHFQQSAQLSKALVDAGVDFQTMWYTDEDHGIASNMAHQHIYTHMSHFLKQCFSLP
row,Substance,Concentration (nM) of Remaining Main Peak by RP-HPLC after Incubation of Peptide with Purified Porcine DPP-IV [nM]
1,H[dA]DAVFTDNYTRLRKQVAAKKYLQSIKNKRYGGPSSGAPPPS [VPAC2-P47],9.0
2,Hexanoyl-HSDAVFTDNYTRLLAKLALQKYLQSIKNKRYGGPSSGAPPPS [VPAC2-P119],9.0
3,Hexanoyl-HSDAVFTDNYTRLRKQVAAKKYLQSIKNKRYGGPSSGAPPPS [VPAC2-P31],9.0
4,MHSDAVFTDNYTRLRKQVAAKKYLQSIKNKRYGGPSSGAPPPS [VPAC2-P104],9.0

# Same assay, conditions: Time = 2 hours at 37° C.
row,Substance,Concentration (nM) of Remaining Main Peak by RP-HPLC after Incubation of Peptide with Purified Porcine DPP-IV
1,H[dA]DAVFTDNYTRLRKQVAAKKYLQSIKNKRYGGPSSGAPPPS [VPAC2-P47],7.9 nM
2,Hexanoyl-HSDAVFTDNYTRLLAKLALQKYLQSIKNKRYGGPSSGAPPPS [VPAC2-P119],8.0 nM
3,Hexanoyl-HSDAVFTDNYTRLRKQVAAKKYLQSIKNKRYGGPSSGAPPPS [VPAC2-P31],8.0 nM and 7.0 nM and 6.7 nM
4,MHSDAVFTDNYTRLRKQVAAKKYLQSIKNKRYGGPSSGAPPPS [VPAC2-P104],7.8 nM

# Same assay, conditions: Time = 6 hours at 37° C.
row,Substance,Concentration (nM) of Remaining Main Peak by RP-HPLC after Incubation of Peptide with Purified Porcine DPP-IV
1,H[dA]DAVFTDNYTRLRKQVAAKKYLQSIKNKRYGGPSSGAPPPS [VPAC2-P47],6.1 nM
2,Hexanoyl-HSDAVFTDNYTRLLAKLALQKYLQSIKNKRYGGPSSGAPPPS [VPAC2-P119],6.6 nM
3,Hexanoyl-HSDAVFTDNYTRLRKQVAAKKYLQSIKNKRYGGPSSGAPPPS [VPAC2-P31],6.7 nM and 6.1 nM and 5.6 nM
4,MHSDAVFTDNYTRLRKQVAAKKYLQSIKNKRYGGPSSGAPPPS [VPAC2-P104],6.6 nM

# Same assay, conditions: Time = 24 hours at 37° C.
row,Substance,Concentration (nM) of Remaining Main Peak by RP-HPLC after Incubation of Peptide with Purified Porcine DPP-IV
1,H[dA]DAVFTDNYTRLRKQVAAKKYLQSIKNKRYGGPSSGAPPPS [VPAC2-P47],2.8 nM
2,Hexanoyl-HSDAVFTDNYTRLLAKLALQKYLQSIKNKRYGGPSSGAPPPS [VPAC2-P119],4.2 nM
3,Hexanoyl-HSDAVFTDNYTRLRKQVAAKKYLQSIKNKRYGGPSSGAPPPS [VPAC2-P31],2.2 nM and 2.6 nM and 3.9 nM
4,MHSDAVFTDNYTRLRKQVAAKKYLQSIKNKRYGGPSSGAPPPS [VPAC2-P104],4.1 nM

# Molecular target: T1, human VPAC2
# Experiment: Alpha screen cAMP in vitro potency, human VPAC2 receptor
# Type: cell-based
# Conditions: cAMP generation; single result from two analyses performed in a single run; read-out: Human VPAC2 Receptor: Alpha Screen EC50
# Procedure, shortened: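 Stimulated cAMP accumulation is read by AlphaScreen after 60 min exposure of 50,000 non-enzymatically harvested cells to compound, followed by lysis with donor beads.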
row,Substance,EC50 [nM]
1,HSDAVFTDNYTRLRKQVAAKKYLQSIKNKRYGGPSSGAPPPS [Agonist P6],3.19
2,HSDAVFTDNYTRLRKQVAASKYLQSIKNKRYGGPSSGAPPPS [Agonist P21],11.6

# Molecular target: T3, human PAC1 (Homo sapiens, UniProt P41586)
# T3 sequence (P41586 21-468): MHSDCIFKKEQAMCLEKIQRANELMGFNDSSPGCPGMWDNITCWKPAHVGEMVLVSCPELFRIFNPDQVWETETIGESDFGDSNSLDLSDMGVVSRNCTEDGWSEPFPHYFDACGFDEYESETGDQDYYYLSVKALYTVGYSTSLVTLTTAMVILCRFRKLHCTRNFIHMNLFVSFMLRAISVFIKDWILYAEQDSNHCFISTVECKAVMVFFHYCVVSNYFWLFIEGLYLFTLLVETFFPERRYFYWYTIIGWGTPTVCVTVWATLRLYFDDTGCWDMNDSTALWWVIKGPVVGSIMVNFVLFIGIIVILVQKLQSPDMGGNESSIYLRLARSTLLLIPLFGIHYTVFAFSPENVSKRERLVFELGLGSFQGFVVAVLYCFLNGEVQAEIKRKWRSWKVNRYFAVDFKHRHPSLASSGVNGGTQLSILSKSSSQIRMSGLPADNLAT
# Experiment: DiscoveRx cAMP in vitro potency, CHO-PO cells transiently transfected with human PAC1 receptor
# Type: cell-based
# Design: expressed in transfected cells; host or cells: CHO-PO, transient (Lipofectamine)
# Conditions: cAMP generation; mean of two independent runs; read-out: Human PAC1 Receptor: DiscoveRx EC50
# Procedure: (§2) Also, the cells are washed twice. The cells are incubated in assay buffer plus IBMX for 15 minutes at room temperature. […] The stimuli are present for 30 minutes. Then, the assay buffer is gently removed. […] At day 3, the assay described above for the VPAC2 receptor cell line is performed.
row,Substance,EC50 [nM]
1,Ac-HSDAVFTDNYTRLRKQVAAKKYLQSIKNKRYGGPSSGAPPPS [Agonist P33],111
2,H-HSDAVFTDNYTRLRKQVAARKYLQSIKNKRYGGPSSGAPPPS [Agonist P20],> 25
3,HSDAVFTDNYTRLRKQVAAKKYLQSIKNKRYGGPSSGAPPPS [Agonist P6],> 40
4,HSDAVFTDNYTRLRKQVAAKKYLQSIKNRRYGGPSSGAPPPS [Agonist P25],137
5,HSDAVFTDNYTRLRKQVAAKKYLQSIKN[hArg]RYGGPSSGAPPPS [Agonist P24],> 100
6,HSDAVFTDNYTRLRKQVAASKYLQSIKNKRYGGPSSGAPPPS [Agonist P21],> 100

# Molecular target: T3, human PAC1
# Experiment: Filter binding assay, membranes of cells transiently transfected with human PAC1, 125I-labeled PACAP-27 tracer (Table 2)
# Design: expressed in transfected cells
# Conditions: read-out: Human PAC1 Receptor Binding
# Procedure, shortened: as §1
row,Substance,IC50 [nM]
1,HSDAVFTDNYTRLRKQVAAKKYLQSIKNKRYGGPSSGAPPPS [Agonist P6],334

# Molecular target: T1, human VPAC2
# Experiment: DiscoveRx cAMP in vitro potency, CHO-S cell line stably expressing human VPAC2 receptor
# Type: cell-based
# Conditions: cAMP generation; mean of two independent runs
# Procedure: as §2
row,Substance,EC50 [nM]
1,Ac-HSDAVFTDNYTRLRKQVAAKKYLQSIKNKRYGGPSSGAPPPS [Agonist P33],0.86
2,H-HSDAVFTDNYTRAKAKVAAKKYLQSIKNKRYGGPSSGAPPPS [Agonist P94],> 1000
3,H-HSDAVFTDNYTRLRKQVAARKYLQSIKNKRYGGPSSGAPPPS [Agonist P20],2.13
4,HSDAVFTDNYTRAAAKVAAKKYLQSIKNKRYGGPSSGAPPPS [Agonist P88],> 1000
5,HSDAVFTDNYTRLRKQVAAKKYLQSIKNGRPSSGAPPPS [Agonist P92],8.2

# Molecular target: T4, human VPAC1 (Homo sapiens, UniProt P32241)
# T4 sequence (P32241 31-457): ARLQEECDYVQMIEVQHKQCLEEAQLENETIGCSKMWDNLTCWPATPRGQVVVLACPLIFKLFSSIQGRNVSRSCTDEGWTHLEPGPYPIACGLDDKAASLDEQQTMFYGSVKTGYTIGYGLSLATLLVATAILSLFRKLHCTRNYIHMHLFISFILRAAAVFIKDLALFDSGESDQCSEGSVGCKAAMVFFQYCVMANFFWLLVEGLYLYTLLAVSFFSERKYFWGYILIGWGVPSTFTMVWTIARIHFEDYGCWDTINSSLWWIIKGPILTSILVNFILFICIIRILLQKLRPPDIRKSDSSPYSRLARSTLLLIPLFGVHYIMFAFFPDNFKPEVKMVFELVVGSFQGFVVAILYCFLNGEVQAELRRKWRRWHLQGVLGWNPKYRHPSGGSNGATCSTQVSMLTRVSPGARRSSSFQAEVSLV
# Experiment: Filter binding assay, membranes of cells transiently transfected with human VPAC1, 125I-labeled VIP tracer (Table 2)
# Design: expressed in transfected cells
# Conditions: read-out: Human VPAC1 Receptor Binding
# Procedure, shortened: as §1
row,Substance,IC50 [nM]
1,Ac-HSDAVFTDNYTRLRKQVAAKKYLQSIKNKRYGGPSSGAPPPS [Agonist P33],120
2,H-HSDAVFTDNYTRAKAKVAAKKYLQSIKNKRYGGPSSGAPPPS [Agonist P94],271
3,H-HSDAVFTDNYTRLRKQVAARKYLQSIKNKRYGGPSSGAPPPS [Agonist P20],98.7
4,HSDAVFTDNYTRAAAKVAAKKYLQSIKNKRYGGPSSGAPPPS [Agonist P88],979
5,HSDAVFTDNYTRLRKQVAAKKYLQSIKNGRPSSGAPPPS [Agonist P92],74.6
6,HSDAVFTDNYTRLRKQVAAKKYLQSIKNKRYGGPSSGAPPPS [Agonist P6],195
7,HSDAVFTDNYTRLRKQVAAKKYLQSIKNRRYGGPSSGAPPPS [Agonist P25],233
8,HSDAVFTDNYTRLRKQVAAKKYLQSIKN[hArg]RYGGPSSGAPPPS [Agonist P24],198
9,HSDAVFTDNYTRLRKQVAASKYLQSIKNKRYGGPSSGAPPPS [Agonist P21],385
